Measured values reported in patent US6180844A, “Composition containing fluorescence-generating substrate” (Aisin Seiki Kabushiki Kaisha, priority 1998, dated 2001).

System: human chromosome
Assay: In-situ hybridization of a human chromosome: fluorescence-generating substrate reacted with probe-bonded peroxidase and hydrogen peroxide, observed by fluorescence microscope
Design: key to Intensity of Fluorescence / Binding: +++: Very strong.; ++: Strong.; +: Weak.; ±: Very weak.; -: Not detected
Conditions: for Binding: binding of the substrate to the chromosome, same reaction conditions; for Intensity of Fluorescence: human chromosome sample from peripheral blood lymphocytes, substrate in 0.01% hydrogen peroxide, room temperature 30 minutes, fluorescence microscope; for fluorescent signals observed: summary of Table 1
Source text: A human chromosome sample was hybridized with a digoxigenin-labeled, full-length human DNA probe, to which was bonded a peroxidase-labeled anti-digoxigenin antibody. This was reacted with any of fluorescence-generating substrates of the invention (Compounds 1 to 11) or with a comparative substrate of a commercially available, water-soluble fluorescent substrate, 3-(4-hydroxyphenyl)propionic acid (HPPA). […] The full-length human DNA probe hybridizes entirely with the human chromosome. Therefore, if the fluorescence-generating substrates tested herein are reacted in a reaction system comprising peroxidase and hydrogen peroxide, the entire chromosome in the system shall be seen to emit fluorescence in the fluorescence-microscopic observation.
The procedure is as follows:
Human chromosome samples were prepared from cultured human peripheral blood lymphocytes. Full-length human DNA was labeled with digoxigenin through nick translation, collected through ethanol precipitation, and dissolved in formamide to prepare a digoxigenin-labeled, full-length human DNA probe. Each human chromosome sample was immersed in a denaturing solution kept heated at 70° C., for 2 minutes, and then rapidly cooled by putting it into 70% ethanol cooled to 4° C., whereby the double-stranded DNA of the sample was kept dissociated in a single-stranded condition. The probe was kept in a water bath at 75° C. for 10 minutes, and then rapidly cooled in ice water with 5 minutes, whereby the double-stranded DNA of the probe was kept dissociated in a single-stranded condition. This probe was mixed with a hybridization solution, put on the human chromosome sample, and reacted with it overnight at 37° C. (in-situ hybridization).
After having been hybridized, the system was washed with a solution of 50% formamide/2×SSC at 37° C. for 15 minutes, then with 2×SSC at room temperature for 15 minutes, and then with 4×SSC at room temperature for 5 minutes, thereby removing the excess, non-hybridized probe therefrom. Next, a pcroxidase-labeled anti-digoxigenin antibody was diluted with a 1% blocking solution into a 1/100 dilution, and the resulting enzyme-labeled antibody dilution was put on the sample, and maintained at 37° C. for 1 hour. The excess enzyme antibody not bonded to the probe was removed by washing the system with a washing solution containing a surfactant. Any of the fluorescence-generating substrates (Compounds 1 to 11) of the invention and a commercially-available, water-soluble fluorescent substrate, HPPA was dissolved in a reactant solution containing 0.01% hydrogen peroxide […], and the resulting fluorescent substrate solution was put on the sample and reacted with it at room temperature for 30 minutes. After reacting in the reaction system comprising the probe-bonded peroxidase and hydrogen peroxide, the fluorescence-generating substrate formed a new compound which was fixed on the chromosome and emitted fluorescence, which was observed using a fluorescence microscopic.
The full-length human DNA probe hybridizes with the entire chromosome, with the result that the entire chromosome was stained with the fluorescence-generating substrate. Sample were processed with any of the fluorescent substrates (Compounds 1 to 11) as well as the commercially-available, water-soluble fluorescent substrate, […]. […] In addition, the binding of the substrate to the chromosome was checked.

Row | SMILES | Binding | Intensity of Fluorescence | fluorescent signals observed | binding of the enzymatic reaction product to the chromosome (product after the enzymatic reaction)
1 | Cc1cc(O)ccc1NC(=O)c1ccccc1C [Compound 9] | ++ | ++ |  | 
2 | Cc1cc(C)c(C(=O)Nc2ccc(O)cc2C)c(C)c1 [Compound 10, 4-hydroxy-2-methylphenyl-2,4,6-trimethylbenzamide] | ++ | ++ |  | 
3 | O=C(O)CCCCCNC(=O)CCc1ccc(O)cc1 [Compound 11, 6-{3-(4-hydroxyphenyl)propionamido}hexanoic acid] | +++ | +++ | high-intensity fluorescent signals were observed | 
4 | O=C(O)CCc1ccc(O)cc1 [HPPA, 3-(4-hydroxyphenyl)propionic acid, reference compound] | + | ± | few fluorescent signals were detected | soluble in water or could not bind to the chromosome
